test: Human HepG2 cell viability assay in 384 well format; format: toxicity, cell-based; set-up: dose 125 nL, time 70.5 hour; concentration not given beside the values; settings: HepG2 cells, read-out: Inhibition

| Compound | cytotoxicity at 70.5 h [%] |
| --- | --- |
| CCn1nc(C)c(C(=O)N2C[C@@H](CN(C)C)[C@@H](CO)C2)c1C | 0.473 |
| CN(CCCOc1ccccc1)S(=O)(=O)N1CCOCC1 | -12.8 |
| Cn1cc(N2CC3(CCN(CC4CC4)CC3)OCC2=O)cn1 | -12.5 |
| N#Cc1cn(C2CC2)c(=O)n(Cc2noc(-c3ccsc3)n2)c1=O | -14 |
| CC(C)(C)NC(=O)c1nn(C2CCS(=O)(=O)C2)c2c1CCCC2 (stereo not given) | -18.7 |
| CS(=O)(=O)Cc1ccc(Cl)cc1NCc1cccc(F)c1F | 2.24 |
| Clc1ccc(CN2CCOC[C@H](Oc3cccnc3)C2)cc1 | -2.34 |
| Cc1nn(C)c(C)c1CN(CCO)C(=O)C1COc2ccccc2C1 (stereo not given) | 30 |
| COc1ccccc1C(=O)Nc1c(F)c(C(=O)N2CCCC2)nn1C | -0.747 |
| O=C(NCCc1ccncc1)[C@@H]1CC[C@@H]2[C@@H](CCN2Cc2ccco2)O1 | -9.71 |
| Cc1noc(C(C)C)c1C(=O)N1CCCN(Cc2cscn2)CC1 | 1.02 |
| Cc1ccccc1N1CCCN(c2ccncn2)CC1 | 2.64 |
| CCc1cnc(CN(C)C(=O)NC2CCN(c3ccccc3)C2)s1 (stereo not given) | -0.551 |
| Cc1cnn(CCC(=O)NS(=O)(=O)N2CCCc3ccccc32)c1 | -5.92 |
| CC1CN(CC(=O)NC2CCOCC2)CCN1Cc1nccn1C (stereo not given) | -0.539 |
| COc1nn(C)c2c1CCCN(C(=O)c1ccccc1F)C2 | -95.9 |
| O=C(c1ccccn1)N1CCC(c2nccn2Cc2ccncc2)CC1 | -14.4 |
| Cc1cccc(-n2ncc(C(=O)N3CCn4c(C)nnc4C3)c2C)c1 | -10.4 |
| Cc1ccc(-c2nn(-c3cccc(F)c3)cc2CN(C)CCO)o1 | -4.83 |
| Cc1nn(-c2ncnc3[nH]cnc23)c2c1C(C(C)C)CC(=O)N2 (stereo not given) | -1.6 |
| c1cnc(N2CCOC3(CCN(CC4CCCCC4)CC3)C2)nc1 | -4.82 |
| CC1=NN(CC(=O)N2CC[C@@H]3[C@@H](CCC(=O)N3CC(C)C)C2)CC1 | -1.09 |
| CCN(C(=O)c1cc(C)nc2ccccc12)C1CC(=O)NC1=O (stereo not given) | -1.78 |

| Compound | cytotoxicity at 70.5 h [%] |
| --- | --- |
| CCn1nc(C)c2nc(C(C)C)nc(NCCCO)c21 | -16.2 |
| Cn1nc(CNC(=O)C2CCC2)cc1C1CC1 | -4.15 |
| Cc1cc(C(=O)N2C[C@H]3CC[C@@H]2CN(Cc2ccccn2)C3)nc(C)n1 | -0.674 |
| COCC(=O)N1CC2(CCN(c3ccccc3)C2)C1 | -5.97 |
| COc1c(CNCc2ccnc(N3CCCCC3)c2)c(C)nn1C | 24.3 |
| Cc1ccccc1C(C(=O)NCCSC(F)(F)F)N(C)C (stereo not given) | -11.1 |
| O=C(CC1CCCC1)NCCn1ccc(-c2ccccn2)n1 | 4.96 |
| CCCc1nc(CN2CCCC2c2cnn(C)c2)cs1 (stereo not given) | 13 |
| O=C(CCCOc1ccccc1Cl)N1CCCC(n2cncn2)C1 (stereo not given) | 11 |
| Cc1nc(CSCCC(=O)NCc2cccnc2N(C)C)cs1 | -13.6 |
| Cc1cc(F)ccc1CNCc1cccc(C(=O)N2CCCC2)c1 | -1.53 |
| O=C(COc1ccc(-c2ccccc2)nc1)NCC1CC1 | -5.26 |
| c1cnn(CC2CN(Cc3nnc(C4CC4)o3)CCO2)c1 (stereo not given) | -4.26 |
| CCCOC(=O)N1CCC(c2nnc(Cn3cccn3)n2C2CC2)CC1 | 4.42 |
| Cc1cnc(CN2CCN(C(C)c3nc(C)no3)CC2)cn1 (stereo not given) | 17.2 |
| CC(C)NC(=O)C1CN(Cc2ccsc2)Cc2ccnn2C1 (stereo not given) | 1.63 |
| OC1(CNCc2csc(-c3ncccn3)n2)CCCNC1 (stereo not given) | -5.29 |
| CC(C)C(N)C1=N/C(=C2\N=CN=N2)NO1 (stereo not given) | 5.13 |
| Cc1nc(CSCCC(=O)NCc2ccc(N(C)C)cc2)cs1 | -3.76 |
| NC(=O)c1ccc(N2CCCCC2)c(NC(=O)c2cc(Br)ccc2Cl)c1 | 16.1 |
| Cc1cc(C)cc(CN2CCN(Cc3ccc4nonc4c3)CC2=O)c1 | -0.612 |
| COc1ccc(CNC(=O)NC(C)(C(=O)O)c2ccco2)cc1F (stereo not given) | 16.9 |
| CCN(CCS(=O)(=O)c1ccc(Cl)cc1)Cc1ccc(OC)c(OC)c1 | -12.9 |

| Compound | cytotoxicity at 70.5 h [%] |
| --- | --- |
| O=C(CCCc1cn[nH]c1)N1CCOCC(O)C1 (stereo not given) | 0.158 |
| CCCc1nnc2sc(C3CCS(=O)(=O)CC3)nn12 | -10.2 |
| Clc1ccc2cccnc2c1CN1CCCC1Cn1cncn1 (stereo not given) | -17.7 |
| COc1cccc(CNC[C@H]2COCc3nc4cccnc4n32)n1 | -8.19 |
| CCS(=O)(=O)N1CC[C@@H]2[C@@H](CCC(=O)N2CCc2ccccc2)C1 | 1.58 |
| CCCNC(=O)NC(=O)CNC(C)(C)c1ccc2c(c1)OCCO2 | -2.49 |
| Cn1cc(N2CC3(CCN(CC4CCOCC4)CC3)OCC2=O)cn1 | -17.2 |
| O=C([C@@H]1CCO[C@@H]2CCN(CC3CCOCC3)C[C@H]21)N1CCCO1 | 46.7 |
| Cc1oc(-c2ccc(F)cc2)nc1CN1CCOCS1(=O)=O | -12.2 |
| O=C(Nc1nc2c(s1)CN(S(=O)(=O)C1CC1)CC2)c1ccc(=O)[nH]c1 | -10.9 |
| CCN(Cc1c(F)cccc1Cl)c1cc(C2CCNCC2)nc(C)n1 | 2.62 |
| CC(=O)N1CCN(Cc2cccc3c2sc2ccccc23)CC(O)C1 (stereo not given) | -5.85 |
| CS(=O)(=O)NC1CCCN(Cc2ccccn2)C1 (stereo not given) | -1.75 |
| CNC(=O)CN1CCC(NC(=O)Cc2ccc3c(c2)OCCO3)CC1 | 0.523 |
| CCOc1c(Cl)cc(Cl)cc1CNCCCn1ccnc1 | -10.4 |
| CS(=O)(=O)NCC1CCCCN1Cc1cccc(C#N)c1 (stereo not given) | -1.33 |
| O=C(C1CN(CC2CCOCC2)CC12CCOCC2)N1CCOCC1 (stereo not given) | -2.61 |
| O=C(O)COCC(=O)NC1CC2(CCCCC2)Oc2ccccc21 (stereo not given) | 18.3 |
| O=C(Cc1ccccn1)N1CCC2(CC1)[C@H](O)C[C@@H]2O | -12.4 |
| Cc1cc(C)nc(NC2CCc3nc(C)nn3C2)n1 (stereo not given) | -5.94 |
| Fc1ccc(COCC2CCN(Cc3ccccn3)CC2)cc1 | -4.18 |
| CN(C)C(=O)C1OC2(CCN(C(=O)N(C)C)CC2)c2ccccc21 (stereo not given) | -19.3 |
| Cc1c(Cl)cccc1S(=O)(=O)NCc1cnc(N(C)C)n1C | -8.26 |

| Compound | cytotoxicity at 70.5 h [%] |
| --- | --- |
| COCCN1CC(C(=O)NCc2cccnc2-n2cccn2)CC1=O (stereo not given) | -7.22 |
| CN(Cc1nc2ccsc2c(=O)[nH]1)C[C@@H]1CCCN2CCCC[C@H]12 | 14.5 |
| CC(=O)N(Cc1c(F)cccc1F)C1CCCC1 | -6.67 |
| O=C1NCC[C@]12CN(CC1CCOCC1)C[C@H]2c1ccccc1 | -7.01 |
| CC(C)(C)c1cc(CN2C[C@H]3CC[C@@H]2CN(Cc2ccccn2)C3)n[nH]1 | -5.84 |
| CCn1cc2c(n1)C(COCC1CC1)CN(C(=O)c1cnoc1C)C2 (stereo not given) | -12.8 |
| COc1ccc(C(=O)N2CCOc3ccncc32)cc1 | -1.92 |
| Cc1cc(CNC(=O)N2CCOC(c3ccccc3Cl)C2)no1 (stereo not given) | -7.66 |
| Cc1cc2n(n1)CC(CNCc1ccc(-n3ccnc3C)nc1)CN2 (stereo not given) | -20.7 |
| CCc1nc(CN(C)C(=O)CSC)no1 | -11.3 |
| NCCc1cccc(CN2CCN(c3ccccc3)C(=O)C2)c1 | -9.38 |
| CSc1nnc(CC2CCN(C(=O)Cc3ccncc3)CC2)n1C | -16.8 |
| COc1ccc(CN2CCCC3(CC2)CNC(=O)O3)cc1OC (stereo not given) | 12.1 |
| Cc1ccc(C)c(OCCC(=O)N2CCCN(CC(N)=O)CC2)c1 | -7.33 |
| Nc1ncc(-c2csc(NC(=O)C[C@H]3COCCN3)n2)cn1 | -6.96 |
| COCCN(C)C[C@@H]1CN(C(=O)c2cccc(Cl)c2)C[C@@H]1CO | -13.7 |
| CSCCN1CCC(NC(=O)OC(C)(C)C)CC1 | -6.72 |
| CCc1nsc(NC2CC(=O)N(C(C)(C)C)C2)n1 (stereo not given) | -8.26 |
| C1CC(CO[C@@H]2CC[C@H]3[C@H]2OCCN3CC2CC2)CCO1 | -82.4 |
| CS(=O)(=O)NCC(Cc1cccc(F)c1)N1CCNC1=O (stereo not given) | -13.3 |
| NC(=O)CCSCc1ccc(Br)c(F)c1 | -8.58 |
| CCOC(=O)CCCNC(=O)CN1CCN(c2ncccn2)CC1 | -13.6 |
| O=C(Cn1cnc(-c2cccs2)cc1=O)Nc1cccnc1 | -4.25 |

| Compound | cytotoxicity at 70.5 h [%] |
| --- | --- |
| COc1cc(N2C[C@H]3CCC[C@@H](CN(C)C)[C@H]3C2)ncn1 | -10.1 |
| COCC(=O)N1CCC2(CC1)CC(N1CCN(C)CC1)CO2 (stereo not given) | 14.5 |
| CS(=O)(=O)N1CCCC12CCCN(S(=O)(=O)c1cccc(F)c1)C2 (stereo not given) | 2.16 |
| COCCN1CCC(c2cncc(N(C)C)n2)CC1 | 16.5 |
| Cc1nc(N(C)C/C=C/c2ccccc2)c2cnn(C)c2n1 | -5.71 |
| CN(C)CCN1CCC2(CCN(C(=O)c3ccc(F)cc3)CC2)C1=O | -8.17 |
| CC(c1cccc(Cl)c1)N(C)CCS(=O)(=O)CCC(N)=O (stereo not given) | -0.172 |
| CC(CC(=O)c1ccco1)NC(=O)c1ccon1 (stereo not given) | -8.03 |
| Cc1nc(CN2CCN(C(=O)c3sccc3C3CC3)CC2)cs1 | -13 |
| CCCN1CCC(NCc2ccncc2)CC1 | -5.69 |
| Cc1c(CNCCCOc2cccnc2)c2ccccc2n1CC(N)=O | 5.45 |
| CC(=O)CSc1sc2c(O)cc(=O)[nH]c2c1C(N)=O | -12.7 |
| CC1CCCN(CC(=O)N2CCC(c3ncc4c(n3)CCNC4)CC2)C1 (stereo not given) | 1.79 |
| Cc1ccc2oc(C(=O)N3CCCC(n4cccn4)C3)cc2n1 (stereo not given) | 21.1 |
| Fc1ccc(OCCCNC2=NCCN2)cc1 | -14.3 |
| Cc1nnc2n1CCN(C(=O)C1CCN(Cc3ccccc3)CC1)C2 | 14.2 |
| CC1CCCN(Cc2cccc(C(=O)Nc3nccs3)c2)C1 (stereo not given) | -11.3 |
| CN(Cc1cnn(C)c1)C(CO)c1cccc(Br)c1 (stereo not given) | -16.5 |
| CCc1ccc(CNc2cc(-c3ccoc3C)nn2CCO)o1 | -18.9 |
| CN1CC(=O)N(c2cnn(C)c2)CC12CCN(Cc1cccnc1)C2 (stereo not given) | 0.303 |
| CCn1nc(C)c(CCn2ccnc2-c2cc3n(n2)CCCNC3)c1C | -3.85 |
| Cn1cc(C2CCCN2C(=O)CCCOc2ccc(F)cc2F)cn1 (stereo not given) | -11.3 |
| O=C(O)[C@@H]1CCCN1c1nccc(Nc2ccccc2)n1 | 16 |

Source: ChEMBL document CHEMBL3507680, “University of Dundee, Gates Library screen for HepG2 cell viability”
